Tested on: phosphorylation of the ERK1 and ERK2 protein kinases
Experiment: Phospho-ERK (T202/Tyr204) immunofluorescence in EGF-treated HEK 293T cells
Format: cell-based, human
Details: EGF vs unstimulated cells, FIG. 11B
Protocol: Cells are transfected with a collection of siRNAs, and cultured for 48 hours before fixing. Fixed cells are probed with antibodies that specifically recognize the MAPK/ERK protein kinases only when they are phosphorylated on Threonine 202 and Tyrosine 204 in the activation loop. […] Changes in the level and sub-cellular localization of phosphorylated proteins following treatment with an annotation reagent (here siRNA) indicates a functional connection between the annotation reagent and the target of interest. […] Here, 24 individual siRNA pools were transfected into human HEK cells, and their effects on the phosphorylation of the ERK1 and ERK2 protein kinases was assessed by immunofluorescence analysis.
Human HEK 293T cells were plated at 12,000 cells/well, and transfected with 40 ng of siRNA pools targeting the indicated proteins using Lipofectamine 2000 (Invitrogen, Carlsbad Calif.). 24 hours after transfection, cells were cultured in 0.25% serum for 24 hours, then treated with EGF (Sigma; 100 ng/ml) for 5 minutes prior to fixation. For immunofluorescence, cells were rinsed with PBS, fixed with 4% formaldehyde in PBS, and permeabilized using 0.25% Triton X-100. Non-specific immunoreactivity was blocked by incubating cells with 3% BSA in PBS. […] Automated fluorescence image acquisition was carried out using Discovery-1 (Universal Imaging/Molecular Devices).

Substance: EGF: epidermal growth factor (Sigma), stimulus for ERK phosphorylation (NSDSECPLSHDGYCLHDGVCMYIEALDKYACNCVVGYIGERCQYRDLKWWELR; UniProt P01133 971-1023, looked up)
- level of phosphorylated ERK after growth factor treatment: large increase in phosphorylated ERK
